According to the CheMixHub viscosity set:
Values joined by “and” are separate entries in the source; they are usually repeats but may differ in a detail not shown here. Equal values may be shown once.

Experiments:
[1] = xn = mol fraction of the nth substance listed

C=CC#N
Conditions	viscosity
293.15 K, 101 kPa	0.362 mPa·s
298.15 K, 101 kPa	0.342 mPa·s
298.15 K, 101.33 kPa	0.339 mPa·s
303.15 K, 101 kPa	0.325 mPa·s
303.15 K, 101.3 kPa	0.3111 mPa·s and 0.3111 mPa·s
303.15 K, 101.33 kPa	0.324 mPa·s and 0.324 mPa·s and 0.326 mPa·s
307.4 K, 101.33 kPa	0.76 mPa·s and 0.53 mPa·s and 0.584 mPa·s
308.15 K, 101 kPa	0.3296 mPa·s
313.15 K, 101 kPa	0.305 mPa·s
323.15 K, 101 kPa	0.287 mPa·s

CC(C)(N)CO
viscosity
Conditions	298.15 K	303.15 K	308.15 K	313.15 K	318.15 K	323.15 K
100 kPa	132.3 mPa·s	98.48 mPa·s	69.98 mPa·s	46.99 mPa·s	32.2 mPa·s	24.45 mPa·s
101 kPa	–	89 mPa·s and 99.48 mPa·s	60.8 mPa·s	43.7 mPa·s and 47.25 mPa·s	32.2 mPa·s	23.05 mPa·s and 24.33 mPa·s

CC(CC(C)(C)C)CC(C)(C)C
viscosity [mPa·s]
Conditions	293.15 K	298.15 K	313.15 K	323.15 K
101.33 kPa	–	1.217	–	–
102 kPa	1.32	–	0.956	0.828

CC(CC(C)(C)C)CP(=O)([O-])CC(C)CC(C)(C)C.CCCCCCCCCCCCCC[P+](CCCCCC)(CCCCCC)CCCCCC
101 kPa
Conditions	viscosity [mPa·s]
303.15 K	757
313.15 K	439
323.15 K	264

CC1CCC(O)CC1 (stereo not given)
Conditions	viscosity [mPa·s]
293.15 K, 101 kPa	30.4

CCC(C)(C)O
viscosity
Conditions	298.15 K	303.15 K	308.15 K	313.15 K	318.15 K	323.15 K
101 kPa	3.506 mPa·s and 3.532 mPa·s and 4.413 mPa·s	–	–	–	1.681 mPa·s	–
101.3 kPa	3.52 mPa·s	2.87 mPa·s	2.37 mPa·s	1.96 mPa·s	–	–
101.33 kPa	–	2.854 mPa·s	–	1.976 mPa·s	–	1.416 mPa·s

CCCCC(C)CC (stereo not given)
100 kPa
Conditions	viscosity [mPa·s]
293.15 K	0.512
298.15 K	0.485
303.15 K	0.462
308.15 K	0.44
313.15 K	0.422

CCCCC(C)O (stereo not given)
viscosity
Conditions	298.15 K	303.15 K	308.15 K	313.15 K	318.15 K
100 kPa	–	3.29 mPa·s	2.71 mPa·s	2.28 mPa·s	1.93 mPa·s
101.33 kPa	4.047 mPa·s and 4.047 mPa·s	–	–	–	–

CCCCCCCCCCCCCCCCCC[P+](CCCC)(CCCC)CCCC.N#Cc1ccc[n-]1
100 kPa
Conditions	viscosity [mPa·s]
293.15 K	742
298.15 K	519
303.15 K	379
313.15 K	208

CCCCCCc1ccccc1
Conditions	viscosity [mPa·s]
303.15 K, 102 kPa	1.4

CCCCN(CCCC)CCCC
viscosity
Conditions	293.15 K	298.15 K	303.15 K	308.15 K	313.15 K	318.15 K	323.15 K
100 kPa	–	–	1.14 mPa·s and 1 mPa·s	1.09 mPa·s	–	–	–
101 kPa	–	1.273 mPa·s	1.157 mPa·s and 1.155 mPa·s	1.064 mPa·s and 1.069 mPa·s	0.9845 mPa·s and 1 mPa·s	0.9086 mPa·s	0.8422 mPa·s
101.3 kPa	–	–	–	–	0.9974 mPa·s	–	–
101.33 kPa	1.45 mPa·s	1.28 mPa·s	–	1.07 mPa·s	0.99 mPa·s	–	0.863 mPa·s

CCCCOC(=O)c1ccccc1C(=O)OCCCC
Conditions	viscosity [mPa·s]
303.15 K, 101.33 kPa	13.33

CCCC[P+](CC)(CC)CC.N#Cc1ccc[n-]1
100 kPa
Conditions	viscosity [mPa·s]
293.15 K	187
298.15 K	137
303.15 K	104
313.15 K	62

CC[N+](C)(CC)CCOC.O=S(=O)([N-]S(=O)(=O)C(F)(F)F)C(F)(F)F
101 kPa
Conditions	viscosity [mPa·s]
293.15 K	162.2
298.15 K	119.2
303.15 K	89.7
308.15 K	67.72
313.15 K	53.02
318.15 K	40.98
323.15 K	33.06

CC[n+]1cc[nH]c1.O=S(=O)([N-]S(=O)(=O)C(F)(F)F)C(F)(F)F
Conditions	viscosity [mPa·s]
297.55 K, 101 kPa	57.1

CN(C)c1ccccc1
viscosity
Conditions	100 kPa	101 kPa	101.3 kPa
293.15 K	1.415 mPa·s	–	–
298 K	–	1.283 mPa·s	1.282 mPa·s
298.15 K	1.302 mPa·s	–	–
303 K	–	1.18 mPa·s	1.177 mPa·s
303.15 K	1.206 mPa·s	1.18 mPa·s and 1.177 mPa·s and 1.203 mPa·s	–
308 K	–	1.096 mPa·s	1.1 mPa·s
308.15 K	1.123 mPa·s	–	–
313 K	–	1.02 mPa·s	1.02 mPa·s
313.15 K	1.056 mPa·s	–	–
313.35 K	–	1.021 mPa·s	–
318 K	–	0.968 mPa·s	0.967 mPa·s
318.15 K	0.9805 mPa·s	0.931 mPa·s and 0.8294 mPa·s and 0.9484 mPa·s	–
323.15 K	0.9197 mPa·s	0.854 mPa·s	–

COC(C)OC
Conditions	viscosity [mPa·s]
298.15 K, 101 kPa	4.04

Cc1ccc(C(C)C)cc1
Conditions	viscosity [mPa·s]
293.15 K, 101 kPa	0.826

Cn1ccnc1
viscosity
Conditions	298.15 K	308.15 K	318.15 K
100 kPa	1.778 mPa·s and 1.778 mPa·s	1.482 mPa·s and 1.482 mPa·s	1.267 mPa·s and 1.267 mPa·s
101 kPa	1.68 mPa·s	1.382 mPa·s and 1.415 mPa·s	1.213 mPa·s

FC(F)(F)c1ccccc1
viscosity [mPa·s]
Conditions	298.15 K	323.15 K
101 kPa	0.53	0.46
101.33 kPa	0.5524	–

O=C1CCCCCO1
101 kPa
Conditions	viscosity [mPa·s]
303.15 K	4.885
308.15 K	4.324
313.15 K	3.818
318.15 K	3.42

[2H]O[2H]
101 kPa
Conditions	viscosity
293.15 K	1.253 mPa·s
297.15 K	1.128 mPa·s
299.15 K	1.072 mPa·s
300.15 K	0.994 mPa·s and 1.05 mPa·s
301.15 K	1.026 mPa·s
302.15 K	1 mPa·s
303.1 K	0.973 mPa·s
303.15 K	0.981 mPa·s
304.15 K	0.964 mPa·s
305.15 K	0.884 mPa·s and 0.942 mPa·s
306.15 K	0.924 mPa·s
307.15 K	0.901 mPa·s
308.15 K	0.879 mPa·s
309.15 K	0.861 mPa·s
310.15 K	0.842 mPa·s
311.15 K	0.826 mPa·s
312.15 K	0.809 mPa·s
313.1 K	0.785 mPa·s
313.15 K	0.791 mPa·s
323.1 K	0.649 mPa·s

[2H]O[2H] + [Cl-].[K+]
viscosity [mPa·s], [1], 101 kPa
Conditions	x2 = 0.005	x2 = 0.01	x2 = 0.022	x2 = 0.04	x2 = 0.064
298.15 K	1.095	1.08	1.076	1.089	1.101
308.15 K	0.868	0.859	0.871	0.889	0.912
318.15 K	0.714	0.709	0.732	0.755	0.784

[2H]O[2H] + [Cl-].[Li+]
viscosity [mPa·s], [1], 101 kPa
Conditions	x2 = 0.024	x2 = 0.076	x2 = 0.141	x2 = 0.197	x2 = 0.215
298.15 K	–	1.712	3.692	–	8.914
308.15 K	1.039	1.351	3.018	–	6.744
318.15 K	0.854	1.112	2.397	4.216	5.422

C=CC#N + c1ccccc1
[1], 307.4 K, 101.33 kPa
Conditions	viscosity [mPa·s]
x2 = 0.0966	0.494
x2 = 0.2512	0.448
x2 = 0.4788	0.395
x2 = 0.5188	0.386
x2 = 0.6633	0.357
x2 = 0.8844	0.32

CC1CCC(O)CC1 (stereo not given) + c1ccccc1
[1], 293.15 K, 101 kPa
Conditions	viscosity [mPa·s]
x2 = 0.33	5.3
x2 = 0.5	2.4
x2 = 0.6	1.8
x2 = 0.667	1.6
x2 = 0.75	1.4
x2 = 0.8	1.3
